# Experimental data from patent US4965280A, “Antifungal carbinols” (E. I. Du Pont de Nemours and Company, priority 1989, dated 1990).
# Experiments:
# Venturia inaequalis = assay: Example A apple scab; type: in vivo; settings: 100 PPM, read-out: disease control rating, Ex. A
# Method in brief: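 First, compounds are taken up in acetone amounting to 6% of the final volume. Next, they are suspended in purified water with 250 ppm TREM 014 at 100 or 20 ppm. Finally, seedlings of apple are sprayed until run-off.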
# Botrytis cinerea = assay: Example C bean grey mold; type: in vivo; settings: Botrytis cinerea, 24 h, 100 PPM; read-out: disease control rating, Ex. C
# Method in brief: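 At 20 or 100 ppm, each compound was applied as an aqueous suspension (acetone 6% final; TREM 014 250 ppm) sprayed onto young broad bean plants to the point of run-off.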
# Pythium aphanadermatum = assay: Example J cucumber damping off; type: in vivo; settings: Pythium, 336 h; 5 kg/ha; read-out: disease control rating, Ex. J
# Method in brief: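 This cucumber damping-off test used soil and seeds infested with a sand–cereal preparation carrying mycelium of Pythium aphanadermatum. Incubation took place in a growth chamber held at 30° C. for 14 days. Afterwards, the extent of disease was scored as a disease control rating.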
# [1] = tested on: Fusarium oxysporum f. sp. cucumerinum; assay: Example L cucumber wilt; type: in vivo; settings: 336 h, 5 kg/ha, read-out: disease control rating, Ex. L
# Protocol: […] Seeds and soil were then inoculated with a mixture of sand, cereal and mycelium of the fungus Fusarium oxysporum f. sp. cucumerinum, causal agent of cucumber wilt, and incubated in a growth chamber at 30° C. for 14 days. Disease ratings were then made.
# WATERCHESTNUT = assay: Test C rice paddy; type: in vivo, Eleocharis spp.; settings: Eleocharis, 504 h, 21 days, read-out: plant response; for pest or weed control at 64 g/ha: 0064 G/HA; for pest or weed control at 125 g/ha: 0125 G/HA; for pest or weed control at 250 g/ha: 0250 G/HA; for pest or weed control at 500 g/ha: 0500 G/HA
# Source text: (§1) Sixteen cm diameter Airlite plastic pots were partially filled with Tama slit loam soil and the soil saturated with water. Japonica and Indica rice seedlings a the 2.0 to 2.5 leaf stage were transplanted into 1/3 of the pots. Into another third of the pots were transplanted seedling or sprouted tubers of water plantain (Alisma trivale), Scripus (Scirpus paludosus), Cyperus (Cyperus esculentus), and arrowhead (Sagittaria spp.). The remaining pots were planted with barnyardgrass (Echinochloa crusgalli) seeds and sprouted tubes of water chestnut (Eleocharis spp.). These weeds all represent major rice weeds or genera of weeds important in rice. Three to four days after planting, the water level was raised to 3 cm (about 1200 ml/pot) and maintained a this level throughout the test. Chemical treatments were applied directly to the paddy water, within 24 hours of raising the water, after being formulated in a nonphytotoxic solvent. The pots were maintained in the greenhouse.
# SCIRPUS = assay: Test C rice paddy; type: in vivo, Scirpus paludosus; settings: Bolboschoenus maritimus, 504 h, 21 days, read-out: plant response; for pest or weed control at 64 g/ha: 0064 G/HA; for pest or weed control at 125 g/ha: 0125 G/HA; for pest or weed control at 250 g/ha: 0250 G/HA; for pest or weed control at 500 g/ha: 0500 G/HA
# Source text: as §1
# YELLOW NUTSEDGE = assay: Test C rice paddy; type: in vivo, Cyperus esculentus; settings: 21 days
# Source text: as §1
# WATER PLAINTAIN = assay: Test C rice paddy; type: in vivo, Alisma trivale; settings: 504 h, 21 days, read-out: plant response; for pest or weed control at 64 g/ha: 0064 G/HA; for pest or weed control at 125 g/ha: 0125 G/HA; for pest or weed control at 250 g/ha: 0250 G/HA; for pest or weed control at 500 g/ha: 0500 G/HA
# Source text: as §1
# RICE INDICA EFF = assay: Test C rice paddy; type: in vivo; settings: Oryza sativa, 504 h, 21 days, read-out: plant response; for pest or weed control at 64 g/ha: 0064 G/HA; for pest or weed control at 125 g/ha: 0125 G/HA; for pest or weed control at 250 g/ha: 0250 G/HA; for pest or weed control at 500 g/ha: 0500 G/HA
# Source text: as §1
# [2] = tested on: Candida albicans ATCC 11651; assay: In vitro antifungal MIC, microtiter broth dilution; settings: Candida albicans, ATCC11651, 24 h, read-out: MIC values, C. albicans, 30°, 24 hours
# Protocol: In vitro activity (Table 5) is expressed in terms of the minimal inhibitory concentration (MIC) of the test compound which inhibits the growth of yeasts and fungi.
# The target organisms, Candida albicans ATCC 11651 and Aspergillus fumigatus ATCC 28214 are standardized, [V. Bezjak, J. Clinical Micro., 21 509-512 (1984)], to a concentration of 10^7 organisms/ml and maintained at -70° until use. Test compounds are solubilized in dimethyl sulfoxide (DMSO) and diluted in Eagle's Minimum Essential Medium (EMEM) broth to achieve a final concentration of 200 μg/ml. Stock solutions of standard antifungal agents are stored at -70° and diluted in EMEM as required.
# The in vitro assay utilizes a microtiter broth dilution technique [L. Polonelli and G. Morace, Mycopathologia, 86, 21-28 (1984)] and C. […] The appropriate wells are inoculated with the required organism (C. albicans at 1×10^4 organisms/ml and A. fumigatus at 5×10^5 organisms/ml) and the assay incubated at 30° for 24 hours.
# [3] = tested on: Aspergillus fumigatus ATCC 28214; assay: In vitro antifungal MIC, microtiter broth dilution; settings: Aspergillus fumigatus, ATCC28214, 24 h, read-out: MIC values, A. fumigatus, 30°, 24 hours
SMILES,pest or weed control at 100 ppm (Venturia inaequalis),pest or weed control at 100 ppm (Botrytis cinerea),pest or weed control at 5000 g/ha (Pythium aphanadermatum),pest or weed control at 64 g/ha (WATERCHESTNUT),pest or weed control at 125 g/ha (WATERCHESTNUT),pest or weed control at 250 g/ha (WATERCHESTNUT),pest or weed control at 500 g/ha (WATERCHESTNUT),pest or weed control at 1000 g/ha (WATERCHESTNUT),pest or weed control at 64 g/ha (SCIRPUS),pest or weed control at 125 g/ha (SCIRPUS),pest or weed control at 250 g/ha (SCIRPUS),pest or weed control at 500 g/ha (SCIRPUS),pest or weed control at 1000 g/ha (SCIRPUS),plant response (YELLOW NUTSEDGE; 0064 G/HA),plant response (YELLOW NUTSEDGE; 0125 G/HA),plant response (YELLOW NUTSEDGE; 0250 G/HA),plant response (YELLOW NUTSEDGE; 0500 G/HA),plant response (YELLOW NUTSEDGE; 1000 G/HA),pest or weed control at 64 g/ha (WATER PLAINTAIN),pest or weed control at 125 g/ha (WATER PLAINTAIN),further results
C=C(c1ccc(F)cc1)C(O)(Cn1ncnc1I)c1ccc(F)cc1F (stereo not shown) [Example 1381],100%,97%,0%,0%,0%,0%,0%,0%,0%,0%,0%,0%,30%,0,0,0,40,50,0%,0%,pest or weed control at 5000 g/ha [1]: 0%; pest or weed control at 250 g/ha (WATER PLAINTAIN): 0%; pest or weed control at 500 g/ha (WATER PLAINTAIN): 0%; pest or weed control at 1000 g/ha (WATER PLAINTAIN): 0%; pest or weed control at 64 g/ha (RICE INDICA EFF): 0%; pest or weed control at 125 g/ha (RICE INDICA EFF): 0%; pest or weed control at 250 g/ha (RICE INDICA EFF): 20%; pest or weed control at 500 g/ha (RICE INDICA EFF): 40%; pest or weed control at 1000 g/ha (RICE INDICA EFF): 60%
C=C(c1ccc(F)cc1)C(O)(Cn1ncnc1S)c1ccc(F)cc1F (stereo not shown) [Example 1304],100%,97%,0%,0%,0%,0%,0%,50%,0%,0%,65%,70%,80%,0,0,0,0,0,0%,0%,pest or weed control at 5000 g/ha [1]: 0%; pest or weed control at 250 g/ha (WATER PLAINTAIN): 0%; pest or weed control at 500 g/ha (WATER PLAINTAIN): 0%; pest or weed control at 1000 g/ha (WATER PLAINTAIN): 65%; pest or weed control at 64 g/ha (RICE INDICA EFF): 0%; pest or weed control at 125 g/ha (RICE INDICA EFF): 0%; pest or weed control at 250 g/ha (RICE INDICA EFF): 0%; pest or weed control at 500 g/ha (RICE INDICA EFF): 0%; pest or weed control at 1000 g/ha (RICE INDICA EFF): 40%
C=C(c1ccc(Cl)cc1)C(O)(Cn1cncn1)c1ccccc1F (stereo not shown) [Example 669],100%,90%,0%,0%,0%,0%,0%,0%,0%,0%,0%,0%,30%,0,0,0,60,80,0%,0%,pest or weed control at 250 g/ha (WATER PLAINTAIN): 0%; pest or weed control at 500 g/ha (WATER PLAINTAIN): 0%; pest or weed control at 1000 g/ha (WATER PLAINTAIN): 0%; pest or weed control at 64 g/ha (RICE INDICA EFF): 0%; pest or weed control at 125 g/ha (RICE INDICA EFF): 0%; pest or weed control at 250 g/ha (RICE INDICA EFF): 0%; pest or weed control at 500 g/ha (RICE INDICA EFF): 0%; pest or weed control at 1000 g/ha (RICE INDICA EFF): 0%; MIC [2]: 0.03 µg/mL; MIC [3]: 0.8 µg/mL
